According to PMC8950151, “Synthesis and Evaluation of the Antifungal and Toxicological Activity of Nitrofuran Derivatives” (Pharmaceutics, 2022):
Values after ≈ are worked out from the molar mass of the structure shown.

How the values were obtained:
C. krusei (ATCC 6258) [1] = assay: Susceptibility test (CLSI M27-A3 broth microdilution, resazurin readout), MIC90; assay type: cell-based, Candida krusei; conditions: Pichia kudriavzevii, ATCC6258, 24 h
in vitro = conditions: human
[2] = tested on: Trichophyton mentagrophytes (ATCC 11481); assay: Susceptibility assay for dermatophytes (CLSI M38-A2, resazurin), MIC90; assay type: cell-based; conditions: Trichophyton mentagrophytes, ATCC11481, 96 h, T. mentagrophytes, 35 °C, read-out: MIC90
[3] = tested on: Histoplasma capsulatum (G217-B/ATCC 26032); assay: microbe, parasite or virus in culture; assay type: cell-based; conditions: ATCC26032, 144 h
C. krusei (ATCC 6258) [4] = assay: Minimum fungicidal concentration (MFC); assay type: cell-based, Candida krusei; conditions: Pichia kudriavzevii, ATCC6258
T. rubrum (ATCC 28289) [5] = assay: Susceptibility assay for dermatophytes (CLSI M38-A2, resazurin), MIC90; assay type: cell-based; conditions: Trichophyton rubrum, ATCC28289, 96 h, 35 °C
T. rubrum (ATCC 28289) [6] = assay: Minimum fungicidal concentration (MFC); assay type: cell-based, Trichophyton rubrum; conditions: for MFC: Trichophyton rubrum, ATCC28289
[7] = tested on: Histoplasma capsulatum (G217-B/ATCC 26032); assay: microbe, parasite or virus in culture; assay type: cell-based; conditions: ATCC26032
[8] = tested on: A549 (ATCC CCL-185) lung epithelial cell line; assay: Cytotoxicity assay in monolayer by resazurin colorimetric method; assay type: cell-based; conditions: Homo sapiens, A549 cells, 72 h
[9] = tested on: Trichophyton mentagrophytes (ATCC 11481); assay: Minimum fungicidal concentration (MFC); assay type: cell-based; conditions: Trichophyton mentagrophytes, ATCC11481; T. mentagrophytes
[10] = tested on: Cryptococcus neoformans (H99/ATCC 208821); assay: Minimum fungicidal concentration (MFC); assay type: cell-based; conditions: ATCC208821, C. neoformans
[11] = tested on: Cryptococcus neoformans (H99/ATCC 208821); assay: Susceptibility test (CLSI M27-A3 broth microdilution, resazurin readout), MIC90; assay type: cell-based; conditions: ATCC208821, 48 h
C. glabrata (ATCC 90030) [12] = assay: Minimum fungicidal concentration (MFC); assay type: cell-based, Candida glabrata; conditions: Nakaseomyces glabratus, ATCC90030; C. glabrata; read-out: MFC
[13] = tested on: Candida albicans (ATCC 90028); assay: Susceptibility test (CLSI M27-A3 broth microdilution, resazurin readout), MIC90; assay type: cell-based; conditions: ATCC90028, C. albicans, 24 h, 37 °C
[14] = tested on: Paracoccidioides brasiliensis (Pb 18); assay: microbe, parasite or virus in culture; assay type: cell-based; conditions: for MFC: Paracoccidioides brasiliensis
C. glabrata (ATCC 90030) [15] = assay: Susceptibility test (CLSI M27-A3 broth microdilution, resazurin readout), MIC90; assay type: cell-based, Candida glabrata; conditions: Nakaseomyces glabratus, ATCC90030, 24 h, 37 °C
[16] = tested on: Candida albicans (ATCC 90028); assay: Minimum fungicidal concentration (MFC); assay type: cell-based; conditions: ATCC90028, C. albicans
Candida species = assay: Susceptibility test (CLSI M27-A3), MIC90, stated for Candida species together; assay type: cell-based; conditions: read-out: MIC90 against Candida species, Candida species (C. albicans, C. krusei, C. glabrata) taken together
in vivo = conditions: AU37 [glp-4 (bn2) I, sek-1 (km4) X], Caenorhabditis elegans, C. elegans larvae viability
Experimental: The experiments were carried out with the mutant strain (AU37 [glp-4 (bn2) I; […]]). The strain was maintained on plates containing nematode growth medium (NGM) seeded with Escherichia coli OP50 at 16 °C. The stage of synchronization of young adults at stage L4 was performed for the toxicity test. About 20 larvae were transferred to each well of 96-well plates containing 100 μL of a medium composed of 60% of 50 mM NaCl; 40% BHI broth; 10 mg/mL cholesterol in ethanol; 200 mg/mL ampicillin and 90 mg/mL kanamycin. Then, 100 μL of dilutions of nitrofuran derivatives (showing the best selectivity index against the fungal species) were added. […] Plates were incubated at 25 °C for 24 h. Survival was assessed by the mobility and shape of the nematode (stick-shaped larvae were considered dead, while sinusoidal larvae were considered alive) under an inverted optical microscope on 40× objective lenses.

T. rubrum ATCC MYA-4438 = assay: Quality control of dermatophyte susceptibility assay, MIC90; assay type: cell-based; conditions: Trichophyton rubrum; T. rubrum ATCC MYA-4438 control strain
Experimental: The experiments were performed according to CLSI […]-A2 [65] for dermatophytes, with minor modifications as described by Costa-Orlandi et al.. The fungal suspensions were adjusted by counting the conidia in the hematocytometer to reach a final concentration of 2.5 × 10^3 cells/mL in RPMI-1640 medium. This was added to the wells at the appropriate compound concentrations and incubated at 35 °C for 96 h with agitation (150 rpm). Visual and colorimetric readings were taken with the addition of 20 μL of 0.03% resazurin [61]. Quality control was performed using the strain of T. rubrum ATCC MYA-4438, with the drug TRB.

| SMILES | MIC90 (C. krusei (ATCC 6258) [1]) | IC50 (in vitro) | MIC90 [2] | MIC90 [3] | MFC (C. krusei (ATCC 6258) [4]) | MIC90 (T. rubrum (ATCC 28289) [5]) | MFC (T. rubrum (ATCC 28289) [6]) | MFC [7] | IC50 [8] | MFC [9] | MFC [10] | MIC90 [11] | melting point | MFC (C. glabrata (ATCC 90030) [12]) | MIC90 [13] | MFC [14] | MIC90 (C. glabrata (ATCC 90030) [15]) | MFC [16] | further results |
| --- | --- | --- | --- | --- | --- | --- | --- | --- | --- | --- | --- | --- | --- | --- | --- | --- | --- | --- | --- |
| CS(=O)(=O)c1ccc(C(=O)/C=C/c2ccc([N+](=O)[O-])o2)cc1 [Compound 15, (E)-1-(4-(methylsulfonyl)phenyl)-3-(5-nitrofuran-2-yl)prop-2-en-1-one] | > 250 mg/L | 11.5 mg/L (≈ 35.8 µM) | 7.8 mg/L (≈ 24.3 µM) | > 250 mg/L | > 250 mg/L | 7.8 mg/L (≈ 24.3 µM) | 15.6 mg/L (≈ 48.6 µM) | > 250 mg/L | 34.2 mg/L (≈ 107 µM) | 15.6 mg/L (≈ 48.6 µM) | ≥ 250 mg/L | ≥ 250 mg/L | 197 to 200 °C (dec.) | > 250 mg/L | > 250 mg/L | 7.81 mg/L (≈ 24.3 µM) | > 250 mg/L | > 250 mg/L | – |
| O=C(/C=C/c1ccc([N+](=O)[O-])o1)c1ccc(Cl)cc1Cl [Compound 16, (E)-1-(2,4-dichlorophenyl)-3-(5-nitrofuran-2-yl)prop-2-en-1-one] | > 250 mg/L | 29.9 mg/L (≈ 95.8 µM) | 7.8 mg/L (≈ 25 µM) | 62.5 mg/L (≈ 200 µM) | > 250 mg/L | 7.8 mg/L (≈ 25 µM) | 31.2 mg/L (≈ 100 µM) | 62.5 mg/L (≈ 200 µM) | 35.6 mg/L (≈ 114 µM) | 7.8 mg/L (≈ 25 µM) | ≥ 250 mg/L | ≥ 250 mg/L | 164 to 165 °C | > 250 mg/L | 250 mg/L (≈ 801 µM) | 1.95 mg/L (≈ 6.25 µM) | > 250 mg/L | > 250 mg/L | fungistatic / fungicidal profile (T. rubrum (ATCC 28289) [6]; MFC versus MIC90): fungistatic profile |
| O=C(/C=C/c1ccccc1)OCc1ccc([N+](=O)[O-])o1 [Compound 1] | 31.2 mg/L (≈ 114 µM) | 240 mg/L (≈ 880 µM) | 15.6 mg/L (≈ 57.1 µM) | > 250 mg/L | 31.2 mg/L (≈ 114 µM) | > 250 mg/L | > 250 mg/L | > 250 mg/L | 250 mg/L (≈ 915 µM) | 15.6 mg/L (≈ 57.1 µM) | 31.2 mg/L (≈ 114 µM) | 31.2 mg/L (≈ 114 µM) | – | > 250 mg/L | 3.9 mg/L (≈ 14.3 µM) | 62.5 mg/L (≈ 229 µM) | 7.81 mg/L (≈ 28.6 µM) | 125 mg/L (≈ 457 µM) | MIC90 (Candida species): 3.9 mg/L (≈ 14.3 µM); viability at 24 h, 250 µg/mL (in vivo): > 94%; fungistatic / fungicidal profile [14]: fungistatic profile |
| CN(C/C=C/C#CC(C)(C)C)Cc1cccc2ccccc12 [TRB, terbinafine] | – | – | – | – | – | – | – | – | – | – | – | – | – | – | – | – | – | – | MIC90 (T. rubrum ATCC MYA-4438): 0.03 mg/L (≈ 0.103 µM) |
| O=C(NCCCn1ccnc1)c1ccc([N+](=O)[O-])o1 [Compound 2, N-(3-(1H-imidazol-1-yl)propyl)-5-nitrofuran-2-carboxamide] | > 250 mg/L | 90.8 mg/L (≈ 343 µM) | 125 mg/L (≈ 473 µM) | 250 mg/L (≈ 946 µM) | > 250 mg/L | 125 mg/L (≈ 473 µM) | > 250 mg/L | > 250 mg/L | 49.1 mg/L (≈ 186 µM) | 125 mg/L (≈ 473 µM) | ≥ 250 mg/L | ≥ 250 mg/L | 144 to 148 °C | > 250 mg/L | > 250 mg/L | 125 mg/L (≈ 473 µM) | > 250 mg/L | > 250 mg/L | – |
